# Laboratory results from US20190328658A1, “ESTROGEN PRODRUGS AND METHODS OF ADMINISTERING ESTROGEN PRODRUGS” (Evestra, Inc., priority 2018, published 2019).
# Experiments:
# [1] = EP '025; cited from earlier work
# physchem = details: 37 °C, water, thermodynamic from solid
# Method: (§5) Solubilities were determined by shaking (24 hours) an excess of steroid in 20 ml of water/medium at 37° C. Following equilibrium, a portion was passed through a 0,22m-my filter and the steroid concentration in the filtrate was determined by high-performance liquid chromatography.
# Log P = format: physicochemical; details: Table 2
# Excerpt: Example 10: Determination of Log p and Permeability Values of Estriol Prodrugs
# [2] = Caco-2 permeability (A-to-B); format: in vitro ADME; details: human; Caco-2, A-to-B, 120 minutes, dosing 5myM
# Method: (§1) Caco-2 cells (clone C2BBel) were obtained from American Culture Collection. Cell monolayers were grown to confluence on collagen-coated, microporous membranes in 12-well assay plates. The permeability assay buffer was Hank's balanced salt solution. The buffer in the receiving chamber also contained 1% bovine serum albumin. The dosing solution concentration was 5myMof test article in the assay buffer. Cell monolayers were dosed on the apical side (A-to-B) and incubated at 37° C. with 5% CO2 in a humidified incubator. Samples were taken from the donor and receiver chamber at 120 minutes. All samples were assayed by LC-MS/MS using electrospray ionization. The apparent permeability (Papp) were calculated as follows: […]
# (§2) With dCr/dt being the slope of the cumulative concentration in the recover compartment versus time in ny Ms^−1;
# (§3) Vr is the volume of the receiver compartment in cm^3
# (§4) A is the area of the insert (1.13 cm^2 for 12-well)
# [3] = Solubility in EVA by hot stage microscopy; format: physicochemical; details: for Solubility in EVA28/2.5 at 37° C. (via HSM): EVA28/2.5, hot stage microscopy
# Excerpt: Solubilities in EVA were estimated by hot stage microscopy.
# [4] = in vitro release rates of estriol prodrugs from intravaginal rings; format: physicochemical; details: for Burst Release d1 / Burst Release d2 / Average API release d3-d21: ring, API loading 5.0 %, core polymer EVA28/2.5 (E3: EVA26/4.0), 37°C; for Burst Release d1: day 1; for Burst Release d2: day 2; for Average API release d3-d21: days 3-21
# Method: The estriol prodrugs were processed via hot-melt extrusion and subsequent ring closure to intravaginal rings: […] The hot melt extrusion line for processing the estriol containing EVA28 powder consisted of an 18 mm twin screw extruder, equipped with a loss in weight feeder for dosing the drug containing premix into the extruder. Extrusion was performed at low throughputs of approx. 2 kg/h, the temperature profile of the extruder barrels was adjusted to yield a melt temperature of approx. 125° C. After leaving the die, the strands were directly conveyed through a water bath to obtain a fast cooling process and minimize potential strand deformation. As haul-off unit, a strand pelletizer without knives was used to pull and convey the strand accurately through all downstream sections, ensuring homogeneous strand diameters and a […] shape. […] The cross-sectional diameter of the co-extrudate was measured in-line with a laser system (3 laser heads). […] Alternatively, the ring closure was accomplished via an injection molding process equipment, equipped with a 4.0 mm mold (one or multiple cavities), using EVA28 placebo material as injection material. To determine the in vitro release rates, a rotational incubator, operated at 37±0.5° C., is used. The dissolution medium type, the dissolution medium volume and the rotational speed of the used incubator are selected to provide sink conditions.
# [5] = stated in discussion; cited from earlier work
# [6] = tested on: Caco-2 cells (clone C2BBel); assay: Caco-2 permeability (A-to-B); format: in vitro ADME; details: Caco-2
# Method: as §1, §2, §3, §4
# [7] = cited from earlier work
# [8] = vaginal or oral application; cited from earlier work
# [9] = depending on the model applied; cited from earlier work
# [10] = Solubility in water/medium (shaking 24 hours, HPLC); details: 37 °C, thermodynamic from solid
# Method: as §5
Compound,solubility at 24 h (physchem),logP (Log P),"Papp A→B at 120 min, 5 µM [2]","recovery at 120 min, 5 µM [2]",Solubility in EVA28/2.5 at 37° C. (via HSM) [3],Burst Release d1 [4],Burst Release d2 [4],Average API release d3-d21 [4],other results
CC(=O)O[C@H]1CC[C@H]2[C@@H]3CCc4cc(O)ccc4[C@H]3CC[C@]12C [17-acetate derivative of estradiol],–,–,–,–,–,–,–,–,daily release rate compared to estradiol [1]: around 3 fold
"C[C@]12CCC3c4ccc(O)cc4CCC3C1C[C@@H](O)[C@@H]2OC(=O)C1CC1 (stereo partly drawn) [EC537, (16R,17R)-3,16-dihydroxy-7,8,9,11,12,13,14,15,16,17-decahydro-6H-cyclopenta α phenanthren-17-yl cyclopropanecarboxylate]",4.2 µg/mL,3.55,24 ×10⁻⁶ cm/s,26%,4-5 wt %,15521.1 µg,6229.4 µg,1785.5 µg/day,daily release rate compared to estriol-3-acetate [4]: around 10 fold
"C[C@]12CC[C@@H]3c4ccc(O)cc4CC[C@H]3[C@@H]1CC[C@@H]2O [Example E2, estradiol, reference compound]",–,4.13,–,15%,–,–,–,–,log P [5]: 3.94
"C[C@]12CCC3c4ccc(OC(=O)C5CC5)cc4CCC3C1C[C@@H](O)[C@@H]2O (stereo partly drawn) [EC5105, (8xi,9xi,14xi,16α,17β)-16,17-dihydroxyestra-1(10),2,4-trien-3-yl cyclopropanecarboxylate]",4.9 µg/mL,3.38,1.76 ×10⁻⁶ cm/s,3%,0.5-2 wt %,4301.1 µg,1369.8 µg,567.3 µg/day,"Caco-2 permeability, comparison in words [6]: very low permeability compared to the 17 analog"
"CC(=O)Oc1ccc2c(c1)CC[C@@H]1[C@@H]2CC[C@]2(C)[C@@H](O)CC[C@@H]12 [estradiol-3-acetate, estradiol 3-acetate]",–,–,–,–,–,–,–,–,solubility in silicone compared to estradiol ([7]; silicone): around 10 fold; solubility in water compared to estradiol ([7]; water): twofold higher; daily release rate compared to estradiol [1]: above 45 fold
"C[C@]12CC[C@@H]3c4ccc(O)cc4CC[C@H]3[C@@H]1C[C@@H](O)[C@@H]2O [Example E3, Estriol]",–,–,–,–,0.5-1%,665.1 µg,294.5 µg,119.4 µg/day,"time after application after which no estriol plasma level above the limit could be determined [8]: 4 to 6 h; reduction in activity compared to estradiol [9]: 10 to 30%; solubility at 24 h ([10]; water + 2% SLS, aqueous with cosolvent or surfactant or cyclodextrin): 465 µg/mL; solubility at 24 h ([10]; water): 58.4 µg/mL; log P [5]: 2.81"
"CC(=O)Oc1ccc2c(c1)CCC1C2CC[C@@]2(C)C1C[C@@H](O)[C@@H]2O (stereo partly drawn) [EC5104, (8xi,9xi,14xi,16α,17β)-16,17-dihydroxyestra-1(10),2,4-trien-3-yl acetate]",57.8 µg/mL,3.02,23.7 ×10⁻⁶ cm/s,64%,0.5 wt %,2891.6 µg,1322.0 µg,548.1 µg/day,solubility in EVA compared to estriol [3]: comparable to the estriol solubility in EVA
"C[C@]12CCC3c4ccc(OC(=O)C5CC5)cc4CCC3C1C[C@@H](O)[C@@H]2OC(=O)C1CC1 (stereo partly drawn) [EC5106, 3,16α,17β-Trihydroxyestra-1,3,5(10)-triene 3,17-biscyclopropane carboxylate]",–,3.99,11.4 ×10⁻⁶ cm/s,25%,–,–,–,–,–
"C#C[C@]1(O)CC[C@H]2[C@@H]3CCc4cc(O)ccc4[C@H]3CC[C@@]21C [EE, ethinyl estradiol, reference compound]",–,4.52,42.5 ×10⁻⁶ cm/s,59%,–,–,–,–,–
